From patent US20240390340A1 (INCYTE CORPORATION, priority 2023, published 2024)
Like-named read-outs stand apart in the source and are kept apart here.

Legend:
KRAS G12D = KRAS G12D (Homo sapiens, UniProt P01116, G12D); test: GDP-GTP exchange assay (bodipy-GDP/GppNHp, SOS1), KRAS G12D; format: biochemical
KRAS G12V = KRAS G12V (Homo sapiens, UniProt P01116, G12V); test: GDP-GTP exchange assay (bodipy-GDP/GppNHp, SOS1), KRAS G12V; format: biochemical
[1] = bodipy-loaded KRAS G12D 2.5 nM, 4 h pre-incubation, value for the most potent isomer quoted for certain compounds, read-out: G12D (KRAS G12D exchange assay IC50)
[2] = KRAS G12V mutant, value for the most potent isomer quoted for certain compounds, read-out: G12V (KRAS G12V exchange assay IC50)

Sequence of KRAS G12V (P01116 1-188 isoform P01116-2 G12V): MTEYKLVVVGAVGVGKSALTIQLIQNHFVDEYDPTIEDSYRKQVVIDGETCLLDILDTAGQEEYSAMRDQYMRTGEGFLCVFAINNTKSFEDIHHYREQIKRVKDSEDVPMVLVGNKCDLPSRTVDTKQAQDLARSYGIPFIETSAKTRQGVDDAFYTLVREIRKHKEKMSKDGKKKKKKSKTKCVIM
Sequence of KRAS G12D (P01116 1-188 isoform P01116-2 G12D): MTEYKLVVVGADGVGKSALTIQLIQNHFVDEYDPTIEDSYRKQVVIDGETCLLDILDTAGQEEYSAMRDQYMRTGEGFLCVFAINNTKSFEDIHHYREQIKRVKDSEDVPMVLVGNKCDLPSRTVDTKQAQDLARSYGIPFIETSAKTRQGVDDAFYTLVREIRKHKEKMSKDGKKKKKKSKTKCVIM

Compound	IC50 (KRAS G12D; [1]) [nM]	IC50 (KRAS G12V; [2]) [nM]	IC50 (KRAS G12D; Table H, column G12D, for compounds isolated as several atropisomers/diastereoisomers the value for the most potent isomer is quoted, read-out: KRAS G12D exchange assay IC50) [nM]	IC50 (KRAS G12V; Table H, column G12V, for compounds isolated as several atropisomers/diastereoisomers the value for the most potent isomer is quoted, read-out: KRAS G12V exchange assay IC50) [nM]
COc1ccc(O[C@H]2C[C@H](c3cc4c(C)nc5c(F)c(-c6cccc(Cl)c6Cl)c(CCC#N)cc5c4n3[C@H]3[C@H]4CN[C@@H]3C4)N(C(=O)C3CC3)C2)cn1 [Example 301]	≤ 100	≤ 100	–	–
Cc1nc2c(F)c(-c3cccc(Cl)c3Cl)c(CCC#N)cc2c2c1cc([C@H]1C[C@H](c3ccccc3)CN1C(=O)C1CC1)n2[C@H]1[C@H]2CN[C@@H]1C2 [Example 109]	≤ 100	≤ 100	–	–
Cc1ccccc1C(=O)N1C[C@@H](OCc2c(F)cccc2F)C[C@@H]1c1cc2c(C)nc3c(F)c(-c4cccc(Cl)c4Cl)c(CCC#N)cc3c2n1[C@H]1[C@H]2CN[C@@H]1C2 [Example 196]	100 to 1000	≤ 100	–	–
Cc1nc2c(F)c(-c3cccc(Cl)c3Cl)c(CCC#N)cc2c2c1cc([C@H]1C[C@H](O[C@@H](C)c3ccccn3)[C@@H](C)N1C(=O)C1CC1)n2[C@H]1[C@H]2CN[C@@H]1C2 [Example 245]	≤ 100	≤ 100	–	–
Cc1cccc(O[C@H]2C[C@H](c3cc4c(C)nc5c(F)c(-c6cccc(Cl)c6Cl)c(CCC#N)cc5c4n3[C@H]3C4CNC3C4)N(C(=O)C3CC3)C2)c1 (stereo partly drawn) [Example 134]	≤ 100	≤ 100	–	–
Cc1nc2c(F)c(-c3cccc(Cl)c3Cl)c(CCC#N)cc2c2c1cc([C@H]1C[C@H](OCc3cnco3)CN1C(=O)C1CC1)n2[C@H]1[C@H]2CN[C@@H]1C2 [Example 258]	≤ 100	≤ 100	–	–
Cc1ccc(O[C@H]2C[C@H](c3cc4c(C)nc5c(F)c(-c6cccc(Cl)c6Cl)c(CCC#N)cc5c4n3[C@H]3[C@H]4CN[C@@H]3C4)N(C(=O)C3CC3)C2)cc1 [Example 118]	≤ 100	≤ 100	–	–
Cc1nc2c(F)c(-c3cccc(Cl)c3Cl)c(CCC#N)cc2c2c1cc([C@H]1C[C@H](Oc3ncco3)CN1C(=O)C1CC1)n2[C@H]1[C@H]2CN[C@@H]1C2 [Example 188]	5000 to 10000	5000 to 10000	–	–
Cc1nc2c(F)c(-c3cccc(Cl)c3Cl)c(CCC#N)cc2c2c1cc([C@H]1C[C@H](OC(C)c3ccccn3)CN1C(=O)C1CC1)n2[C@H]1[C@H]2CN[C@@H]1C2 (stereo partly drawn) [Example 226]	≤ 100	≤ 100	–	–
COc1ccc(F)c(CO[C@H]2C[C@H](c3cc4c(C)nc5c(F)c(-c6cccc(Cl)c6Cl)c(CCC#N)cc5c4n3[C@H]3[C@H]4CN[C@@H]3C4)N(C(=O)C3CC3)C2)c1F [Example 186]	≤ 100	≤ 100	–	–
Cc1ccnc(O[C@H]2C[C@H](c3cc4c(C)nc5c(F)c(-c6cccc(Cl)c6Cl)c(CCC#N)cc5c4n3[C@H]3[C@H]4CN[C@@H]3C4)N(C(=O)C3CC3)C2)c1 [Example 422]	≤ 100	≤ 100	–	–
COc1ccnc(O[C@H]2C[C@H](c3cc4c(C)nc5c(F)c(-c6cccc(Cl)c6Cl)c(CCC#N)cc5c4n3[C@H]3[C@H]4CN[C@@H]3C4)N(C(=O)C3CC3)C2)c1 [Example 328]	≤ 100	≤ 100	–	–
Cc1nc2c(F)c(-c3cccc(Cl)c3Cl)c(CCC#N)cc2c2c1cc([C@H]1C[C@H](OCC3CCOCC3)CN1C(=O)C1CC1)n2[C@H]1[C@H]2CN[C@@H]1C2 [Example 29]	–	–	≤ 100	≤ 100
Cc1nc2c(F)c(-c3cccc(Cl)c3Cl)c(CCC#N)cc2c2c1cc([C@H]1C[C@H](OCC3CCCC3)CN1C(=O)C1CC1)n2[C@H]1[C@H]2CN[C@@H]1C2 [Example 153]	≤ 100	≤ 100	–	–
Cc1nc2c(F)c(-c3cccc(Cl)c3Cl)c(CCC#N)cc2c2c1cc([C@H]1C[C@H](n3cnnn3)CN1C(=O)C1CC1)n2[C@H]1[C@H]2CN[C@@H]1C2 [Example 395]	≤ 100	≤ 100	–	–
COCC1(c2cn([C@H]3C[C@H](c4cc5c(C)nc6c(F)c(-c7cccc(Cl)c7Cl)c(CCC#N)cc6c5n4[C@H]4[C@H]5CN[C@@H]4C5)N(C(=O)C4CC4)C3)nn2)CC1 [Example 383]	≤ 100	≤ 100	–	–
Cc1nc2c(F)c(-c3cccc(Cl)c3Cl)c(CCC#N)cc2c2c1cc([C@H]1C[C@H](Oc3cc(Cl)cc(C#N)c3)CN1C(=O)C1CC1)n2[C@H]1[C@H]2CN[C@@H]1C2 [Example 191]	≤ 100	≤ 100	–	–
COc1ccccc1O[C@H]1C[C@H](c2cc3c(C)nc4c(F)c(-c5cccc(Cl)c5Cl)c(CCC#N)cc4c3n2[C@H]2[C@H]3CN[C@@H]2C3)N(C(=O)C2CC2)C1 [Example 250]	≤ 100	≤ 100	–	–
Cc1nc2c(F)c(-c3cccc(Cl)c3Cl)c(CCC#N)cc2c2c1cc([C@H]1C[C@H](Oc3ccncc3)CN1C(=O)C1CC1)n2[C@H]1[C@H]2CN[C@@H]1C2 [Example 193]	≤ 100	≤ 100	–	–
Cc1nc2c(F)c(-c3cccc(Cl)c3Cl)c(CCC#N)cc2c2c1cc([C@H]1C[C@H](OCc3nsc4ccccc34)CN1C(=O)C1CC1)n2[C@H]1[C@H]2CN[C@@H]1C2 [Example 255]	≤ 100	≤ 100	–	–
Cc1nc2c(F)c(-c3cccc(Cl)c3Cl)c(CCC#N)cc2c2c1cc([C@H]1C[C@H](n3ccnn3)CN1C(=O)C1CC1)n2[C@H]1[C@H]2CN[C@@H]1C2 [Example 342]	≤ 100	≤ 100	–	–
Cc1nc2c(F)c(-c3cccc(Cl)c3Cl)c(CCC#N)cc2c2c1cc([C@H]1C[C@H](Oc3cccc(OC(F)(F)F)c3)CN1C(=O)C1CC1)n2[C@H]1[C@H]2CN[C@@H]1C2 [Example 171]	≤ 100	≤ 100	–	–
CC(O)c1nc2c(F)c(-c3cccc(Cl)c3Cl)c(CCC#N)cc2c2c1cc([C@H]1C[C@H](OCc3c(F)cccc3F)CN1C(=O)C1(C)CC1)n2[C@H]1[C@H]2CN[C@@H]1C2 (stereo partly drawn) [Example 185]	≤ 100	≤ 100	–	–
Cc1nc2c(F)c(-c3cccc(Cl)c3Cl)c(CCC#N)cc2c2c1cc([C@H]1C[C@H](OCc3ccc(F)cc3)CN1C(=O)C1CC1)n2[C@H]1[C@H]2CN[C@@H]1C2 [Example 251]	≤ 100	≤ 100	–	–
Cc1nc2c(F)c(-c3cccc(Cl)c3Cl)c(CCC#N)cc2c2c1cc([C@H]1C[C@H](OC3CCCC3)CN1C(=O)C1CC1)n2[C@H]1[C@H]2CN[C@@H]1C2 [Example 238]	≤ 100	≤ 100	–	–
Cc1nc2c(F)c(-c3cccc(Cl)c3Cl)c(CCC#N)cc2c2c1cc([C@H]1C[C@H](OCc3nnn(C)c3C)CN1C(=O)C1CC1)n2[C@H]1[C@H]2CN[C@@H]1C2 [Example 234]	≤ 100	≤ 100	–	–
Cc1ccnc(C)c1CO[C@H]1C[C@H](c2cc3c(C)nc4c(F)c(-c5cccc(Cl)c5Cl)c(CCC#N)cc4c3n2[C@H]2[C@H]3CN[C@@H]2C3)N(C(=O)C2CC2)C1 [Example 125]	≤ 100	≤ 100	–	–
Cc1nc2c(F)c(-c3cccc(Cl)c3Cl)c(CCC#N)cc2c2c1cc([C@H]1C[C@H](OCc3cocn3)CN1C(=O)C1CC1)n2[C@H]1[C@H]2CN[C@@H]1C2 [Example 112]	≤ 100	≤ 100	–	–
Cc1nc2c(F)c(-c3cccc(Cl)c3Cl)c(CCC#N)cc2c2c1cc([C@H]1C[C@H](Oc3ccc(C#N)cc3F)CN1C(=O)C1CC1)n2[C@H]1[C@H]2CN[C@@H]1C2 [Example 291]	≤ 100	≤ 100	–	–
Cc1nc2c(F)c(-c3cccc(Cl)c3Cl)c(CCC#N)cc2c2c1cc([C@H]1C[C@H](Oc3ccn(C(F)(F)F)n3)CN1C(=O)C1CC1)n2[C@H]1[C@H]2CN[C@@H]1C2 [Example 357]	≤ 100	≤ 100	–	–
